The record followed here is patent US6670360B2, “Optically active pyrrolopyridazine derivatives” (Sankyo Company, Limited, priority 1999, dated 2003).

One assay relates to gastric acid secretion. Briefly: Gastric acid secretion inhibition activity in pylorus-ligated rats. The assay is classed as in vivo. The note with it: for 50% inhibitory dose (ID50, mg/kg) against gastric acid secretion: pylorus-ligated rats, oral administration, four hours after administration. The text has this: Gastric Acid Secretion Inhibition Activity After groups of rats, each group consisting of 3 to 5 rats, were fasted overnight, they were subjected to midline abdominal incision and their pylorus was ligated under anesthesia with ether. The stomach and duodenum were returned to their original positions in the body, followed by closing at the abdominal incision part. A predetermined amount of a test compound was suspended in an aqueous solution containing 0.5% of sodium carboxymethylcellulose and 0.4% of Tween 80 (Polysorbate 80). The resulting suspension was orally administered to the rats. As a control, an aqueous suspension (suspending solvent) containing 0.5% of sodium carboxymethylcellulose and 0.4% of Tween 80 (Polysorbate 80) was orally administered to other rats. Four hours after administration of the test compound or suspending solvent, the rats were sacrificed by inhalation of CO2 gas. They were subjected to abdominal incision to remove their stomach. The content of the stomach was collected in a glass-made graduated centrifuge tube. After centrifugation, the amount (ml) of the supernatant and the amount (ml) of the precipitate were measured. The precipitate of the amount exceeding 0.5 ml was regarded as coprophage and removed from the data. The supernatant (100 μl) was poured into a test tube. Distilled water (4 ml) was added to the solution, and the solution was titrated to pH 7.0 with 0.01 N sodium hydroxide. A standard acid concentration solution obtained by adding 4 ml of distilled water to 100 μl of 0.1 N hydrochloric acid was titrated in a similar manner. […]

Assay [1] has as its system Helicobacter pylori strains 9470, 9472 and 9474. Briefly: Antibacterial action against Helicobacter pylori (MIC, agar dilution). The class given is cell-based. The note with it: 72 h, cultured at 37° C. for 3 days, microaerophilic conditions, read-out: MIC (Minimum Inhibitory Concentration) against Helicobacter pylori. On the procedure:
Antibacterial Action Against Helicobacter pylori The antibacterial activity of the invention compound was evaluated by using Helicobacter pylori strains 9470, 9472 and 9474 and determining MIC (Minimum Inhibitory Concentration) of the invention compound against Helicobacter pylori. Helicobacter pylori was cultured by plating for 4 days. A medium was prepared by dissolving Brain Heart Infusion Agar (product of Difco Laboratories) in a prescribed amount of distilled water, sterilizing in an autoclave, adding equine blood (product of Nippon Seibutsu Zairyo) to give its concentration of 7% and then solidifying the mixture. Under microaerophilic conditions, Helicobacter pylori which had been cultured at 37° C. for 4 days was suspended in physiological saline to give its viable count of about 10^8 CFU/ml. The suspension was then diluted to 100 times and a portion (about 10 μl) of the diluted suspension was inoculated in a medium for measuring MIC. The medium employed for measuring MIC has the same composition as the preculture medium. A compound of this invention was dissolved in dimethyl sulfoxide (DMSO) and two-fold serial dilutions were made with sterilized water. After mixing the solution and the medium in a ratio of 1:99, a solidified product in the Petri dish was employed as an MIC measuring medium. […]
For orientation: Agar dilution tests growth on a series of plates holding different concentrations.

Assay [2] addresses T1, proton potassium-adenosine triphosphatase (H+·K+-ATPase) (Sus scrofa, UniProt P19156).
T1 construct: A microsomal fraction prepared in accordance with the method of Sachs, et al; from tissue; host or cells: swine gastric mucosa, microsomal fraction (density gradient ultracentrifugation)
Briefly: Test on activity of proton potassium-adenosine triphosphatase (H+·K+-ATPase). The assay is classed as biochemical. The note with it: microsomal fraction of swine gastric mucosal layer, pH 6.85, 37° C.; read-out: 50% inhibitory concentration (IC50) against proton-potassium-adenosine triphosphatase. On the procedure: Test on Activity of Proton Potassium-adenosine Triphosphatase (H^+·K^+-ATPase) A microsomal fraction prepared in accordance with the method of Sachs, et al. [J. Bio., Chem., 251, 7690 (1976)] by homogenizing a fresh gastric mucosal layer of swine and then subjecting the homogenate to density gradient ultra centrifugation was employed as a proton potassium-adenosine triphosphatase preparation. A solution (10 μl) of a test compound dissolved in dimethyl sulfoxide was added to 0.75 ml of a 70 mM tris-hydrochloric acid buffer (5 mM magnesium chloride, 20 mM potassium chloride, pH=6.85) containing 30 to 80 μg/ml, in terms of a protein concentration, of an enzyme preparation. The mixture was incubated with 200 times/min of agitation at 37° C. for 45 minutes. The enzymatic reaction was started by adding 0.25 ml of a 8 mM solution of disodium adenosine triphosphate. After this enzymatic reaction was continued for 20 minutes, 1 ml of a 10% trichloroacetic acid-activated charcoal (100 mg) solution was added to terminate the reaction. The reaction mixture was centrifuged (at 4° C. and 3000 rpm) for 15 minutes. […] The amount of inorganic phosphoric acid in a reaction mixture free from potassium chloride was also measured. By subtracting this amount from the amount of inorganic phosphoric acid in the presence of potassium chloride, proton potassium-adenosine triphosphatase activity was determined. […]

T1 sequence (P19156 2-1034 limits assumed): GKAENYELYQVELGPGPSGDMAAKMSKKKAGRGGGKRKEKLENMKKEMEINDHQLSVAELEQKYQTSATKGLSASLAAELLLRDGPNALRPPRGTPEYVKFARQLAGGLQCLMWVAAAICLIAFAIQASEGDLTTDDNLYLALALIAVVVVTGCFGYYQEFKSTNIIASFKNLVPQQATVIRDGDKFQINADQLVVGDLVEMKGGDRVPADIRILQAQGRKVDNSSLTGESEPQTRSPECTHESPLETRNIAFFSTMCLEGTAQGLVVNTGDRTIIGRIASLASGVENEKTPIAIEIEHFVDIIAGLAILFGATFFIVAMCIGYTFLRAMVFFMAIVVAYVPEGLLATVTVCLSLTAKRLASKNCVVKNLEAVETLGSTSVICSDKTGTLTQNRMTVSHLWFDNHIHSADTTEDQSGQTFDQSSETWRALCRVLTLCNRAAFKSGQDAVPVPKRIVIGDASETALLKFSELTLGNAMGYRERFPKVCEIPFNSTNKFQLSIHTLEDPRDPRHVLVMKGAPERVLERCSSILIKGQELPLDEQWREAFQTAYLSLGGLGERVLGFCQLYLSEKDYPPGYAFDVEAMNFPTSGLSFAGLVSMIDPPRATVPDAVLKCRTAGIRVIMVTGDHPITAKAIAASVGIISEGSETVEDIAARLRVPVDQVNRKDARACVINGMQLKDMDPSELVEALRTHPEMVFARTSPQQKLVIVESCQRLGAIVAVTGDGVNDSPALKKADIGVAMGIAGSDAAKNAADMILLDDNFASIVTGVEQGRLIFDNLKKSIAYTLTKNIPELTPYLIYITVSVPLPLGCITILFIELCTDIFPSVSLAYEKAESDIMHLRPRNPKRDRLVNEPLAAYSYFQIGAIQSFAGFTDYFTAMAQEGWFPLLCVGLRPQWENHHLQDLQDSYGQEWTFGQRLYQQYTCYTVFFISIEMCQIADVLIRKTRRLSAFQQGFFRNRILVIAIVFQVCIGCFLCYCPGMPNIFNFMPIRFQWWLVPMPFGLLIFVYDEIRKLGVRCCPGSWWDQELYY
T1 sequence (P18434 whole entry partner): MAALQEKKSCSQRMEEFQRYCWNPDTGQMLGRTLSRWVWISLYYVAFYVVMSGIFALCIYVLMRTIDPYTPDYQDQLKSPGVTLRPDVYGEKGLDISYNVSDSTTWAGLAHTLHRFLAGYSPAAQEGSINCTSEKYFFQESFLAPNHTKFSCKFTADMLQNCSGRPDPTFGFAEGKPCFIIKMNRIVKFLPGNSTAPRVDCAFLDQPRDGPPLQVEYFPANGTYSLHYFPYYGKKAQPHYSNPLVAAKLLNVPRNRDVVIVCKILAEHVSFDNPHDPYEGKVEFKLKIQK

On to `Cc1c(C)n(CC2CC2C)c2c(OCc3ccc(F)cc3)nncc12` (racemic) [Compound A, 7-(4-Fluorobenzyloxy)-1-[(E)-2-methylcyclopropylmethyl]-2,3-dimethylpyrrolo[2,3-d]pyridazine (racemate), reference compound], for which the “50% inhibitory dose (ID50, mg/kg) against gastric acid secretion” value with gastric acid secretion is 1.64 mg/kg.

Consider `Cc1c(C)n(C[C@H]2C[C@@H]2C)c2c(OCc3ccc(F)cc3)nncc12` [Example 1, 7-(4-Fluorobenzyloxy)-2,3-dimethyl-1-[(1S,2S)-2-methylcyclopropylmethyl]pyrrolo[2,3-d]pyridazine], for which, in the assay with gastric acid secretion (from ID50 values of Table 2, versus racemate (Compound A)), the “effects on gastric acid secretion relative to its racemate (times stronger)” value is “about 3 times”. Further, the “50% inhibitory dose (ID50, mg/kg) against gastric acid secretion” value in the assay on gastric acid secretion turned out to be 0.52 mg/kg. Besides, in assay [1], the MIC was at most 12.5 µg/mL. For the same compound, the IC50 in assay [2] is at most 295 nM.
